# Test results reported in patent US9937194B1, “Compounds and methods for treating inflammatory diseases” (priority 2009, dated 2018).
# Where “and” joins values, the source holds several entries; their conditions need not be identical. Equal values may be shown once.
# Assays:
# HDAC activity = assay: H2O2-induced reduction of HDAC activity in PMA-differentiated U937 cells; format: cell-based, human; settings: for restoration of H2O2-reduced HDAC activity (%): test concentration not given, bracketed second value not explained
# In short: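 U937 cells PMA-differentiated for 3 days, pretreated with compound for 20 min, then exposed to 200 μM H2O2 for 4 h with Fluor de Lys substrate present. Whole-cell HDAC activity measured fluorimetrically. Data expressed as fold change versus H2O2-only control, mean of four experiments ± SEM.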
# A/J mice exposed to LPS = assay: Anti-inflammatory activity in vivo: A/J mice exposed to LPS intranasally; settings: intranasal, 1 hr before LPS challenge
# HDAC2 = settings: reduced by oxidative stress; cited from earlier work
# U937 cells [1] = assay: H2O2-induced steroid insensitivity in U937 cells (dexamethasone IC50 on TNFα-induced IL-8); format: cell-based, human; settings: highest concentration tested (100 μM); H2O2 200 μM
# Experimental: Cytokine ELISA. LPS-induced IL-8, TNFα concentrations and TNFα-induced IL-8 concentrations are determined by sandwich ELISA according to the manufacturer's instructions (R&D Systems Europe). IC50 values for dexamethasone on IL-8 production are calculated using the computer program Prism 4.0 (GraphPad Software Inc., San Diego, Calif.) as a marker for steroid sensitivity.
# Restoration of steroid sensitivity. U937 cells: U937 are treated with oxidative stress (H2O2, 200 μM or 0.15 dilution CSM (cigarette smoke conditioned medium)) and 4 hours later, stimulated with TNFα (10 ng/ml) in the presence of dexamethasone (10^−11-10^−6M). Supernatant and cells are collected 24 hrs after stimulation and IL-8 is measured by conventional ELISA. As the index of corticosteroid sensitivity, IC50 of dexamethasone is calculated. Test compounds are treated 20 min before oxidative stress treatment.
# Effects of compounds on H2O2-induced steroid insensitivity in U937 cells. Cells stimulated with H2O2 (200 μM) overnight are incubated with compounds described herein for 30 min under H2O2 (200 μM) exposure. The cells are treated with dexamethasone (10^−11 to 10^−6 M) for 20 min, followed by the TNFα stimulation overnight. TNFα-induced IL-8 release is evaluated by ELISA and IC50 values for dexamethasone on IL-8 production are calculated using Prism. Data are expressed as fold changes against positive control treated with H2O2 only. Values represent means of four experiments±SEM. H2O2 exposure reduces dexamethasone sensitivity by approximately 4 fold based on calculated IC50 values of TNFα-induced IL-8 production.
# IL-8 = assay: LPS-induced IL-8 release in PMA-differentiated U937 cells (ELISA); format: cell-based, human; settings: for IL-8 inhibition (%): test concentration not given
# In short: (§1)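 PMA-differentiated U937 macrophage-like cells were pretreated with compound for 1 hr, then stimulated with LPS (100 ng/ml) for 4 hrs. Released IL-8 and TNFα were quantified by sandwich ELISA. Values are means of three experiments ± SEM.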
# PBMCs from COPD patients = settings: PBMCs obtained from COPD patients; cited from earlier work
# U937 cells [2] = settings: H2O2-induced insensitivity on TNF-α-induced IL-8 production; cited from earlier work
# TNFα = assay: LPS-induced TNFα release in PMA-differentiated U937 cells (ELISA); format: cell-based, human; settings: for TNFα inhibition (%): test concentration not given
# In short: as §1
# HDAC2 mRNA = assay: Cigarette smoke extract-induced reduction of HDAC2 mRNA in A549 cells; format: cell-based, human; settings: A549; CSE
# Experimental: Preparations of cigarette smoke extract. To prepare the cigarette smoke extract, two full-strength Marlboro cigarettes (filters removed; Phillip Morris USA, Richmond, Va.) are combusted through a modified 60-ml syringe apparatus, and the smoke passed through 20 ml of DMEM medium. Each cigarette generally yields five draws of the syringe (to the 60-ml mark), with each individual draw taking approximately 10 s to complete. Cigarette smoke extract is then passed through a 0.20-μm filter to sterilize and remove particulate matter and is used immediately unless otherwise stated.
# Quantitative RT-PCR. Total RNA extraction and reverse transcription are performed using an RNeasy kit (QIAGEN, Crawley, UK) and a High-Capacity cDNA Reverse Transcription Kits (Applied Biosystems, Foster City, Calif.). Gene transcript level of HDAC2 (HS00231032_M1, Applied Biosystems, California, USA) and the house-keeping gene, guanine nucleotide binding protein beta polypeptide-2-like 1 (GNB2L1) (HS00272002_M1, Applied Biosystems) are quantified by real-time PCR using a TaqMan® Gene Expression Master Mix (Applied Biosystems) on a Rotor-Gene 6000 (Corbett Research, Cambridge, UK). Transcripts are analysed by the delta (D) CT method and variations in cDNA concentrations between different samples were corrected using GNB2L1.
# Effects of macrolides on cigarette smoke extract-induced (CSE-induced) reduction of HDAC2 mRNA in A549 cells. Cells pretreated with compounds described herein for 30 min are exposed to CSE (0.15 O.D.) for 1 hr. The cells are washed twice and incubated with medium only for 4 hrs. Data are expressed as % reduction from baseline (left) or % increase from baseline under H2O2. Values represent means of three experiments±SEM. Example 33 reverses cigarette smoke extract-induced (CSE-induced) reduction of HDAC2 mRNA expression in A549 cells at concentrations of about 10 μM or greater, and with statistical significance of p<0.05 versus treatment with CSE only (one-way ANOVA with post hoc test, n=3) at doses of about 30 μM or greater.
# MMP9 [3] = settings: macrophages in sputum of COPD patients; cited from earlier work
# Akt = assay: H2O2-induced phosphorylation of Akt in PMA-differentiated U937 cells (western blot); format: cell-based, human; settings: PMA-differentiated U937; H2O2 1 mM 30 min
# In short: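 PMA-differentiated U937 macrophage-like cells pretreated with compound 20 min, then stimulated with 1 mM H2O2 for 30 min. pAkt measured by western blot densitometry, normalised to total protein and expressed as fold change versus H2O2-only control; mean ± SEM of 3–4 experiments.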
# H. influenzae ATCC 49247 = assay: MIC; format: cell-based
# MMP9 [4] = assay: PMA-induced MMP9 expression in U937 cells (gelatin zymography); format: cell-based, human; settings: test concentration not given; bracketed second value not explained
# S. pneumoniae 303 (ErmB) = assay: MIC; format: cell-based
# S. pneumoniae ATCC 49619 = assay: MIC; format: cell-based
# [5] = tested on: S. pneumoniae 3773 (ErmB); assay: MIC; format: cell-based
# S. pneumoniae 163 (MefA) = assay: MIC; format: cell-based; settings: in µg/mL
# S. pyogenes ATCC 1721 = assay: MIC; format: cell-based
# [6] = format: cell-based; settings: test concentration not given
# K. pneumonia 13883 = assay: MIC; format: cell-based; settings: in µg/mL
# [7] = tested on: S. typhimurium ATCC 14028; assay: MIC; format: cell-based; settings: in µg/mL
# E. faecalis ATCC 29212 = assay: MIC; format: cell-based
# [8] = tested on: S. aureus ATCC 29213 (MSSA) MLS-S; assay: MIC; format: cell-based
# E. coli ATCC 25922 = assay: MIC; format: cell-based; settings: in µg/mL
# P. aeruginosa ATCC 27853 = assay: MIC; format: cell-based
# S. pyogenes ATCC 19615 = assay: MIC; format: cell-based; settings: in µg/mL
# [9] = tested on: N. gonorrhoeae ATCC 49226; assay: MIC; format: cell-based; set-up: unit not given beside the values
Structure (SMILES),restoration of H2O2-reduced HDAC activity (%) (HDAC activity),MIC H. influenzae ATCC 49247 (H. influenzae ATCC 49247) [µg/mL],MMP9 inhibition (%) (MMP9 [4]),MIC S. pneumoniae ATCC 49619 (S. pneumoniae ATCC 49619) [µg/mL],MIC S. pneumoniae 3773 (ErmB) [5] [µg/mL],IL-8 inhibition (%) (IL-8),MIC S. pneumoniae 163 (MefA) (S. pneumoniae 163 (MefA)),MIC S. pyogenes ATCC 1721 (S. pyogenes ATCC 1721) [µg/mL],TNFα inhibition (%) (TNFα),Cell Toxicity (% cell death) [6] [%],MIC K. pneumonia 13883 (K. pneumonia 13883),MIC S. typhimurium ATCC 14028 [7],MIC E. faecalis ATCC 29212 (E. faecalis ATCC 29212) [µg/mL],MIC S. aureus ATCC 29213 (MSSA) MLS-S [8] [µg/mL],MIC E. coli ATCC 25922 (E. coli ATCC 25922),MIC P. aeruginosa ATCC 27853 (P. aeruginosa ATCC 27853) [µg/mL],further results
"CC[C@H]1OC(=O)[C@H](C)[C@@H](O[C@H]2C[C@@](C)(OC)[C@@H](O)[C@H](C)O2)[C@H](C)[C@@H](O[C@@H]2O[C@H](C)C[C@H](N(C)C)[C@H]2O)[C@](C)(O)C[C@@H](C)C(=O)[C@H](C)[C@@H](O)[C@]1(C)O [ERY, erythromycin]",,,,,,,,,,,,,,,,,"restoration of HDAC activity compared with Example 33 (HDAC activity; PMA-differentiated U937, H2O2 200 μM 4 hrs): only at much higher doses than Example 33; HDAC activity reached compared with untreated controls (HDAC activity; PMA-differentiated U937, H2O2 200 μM, comparators at highest doses tested): only restore HDAC activity to levels comparable to untreated controls; anti-inflammatory action in LPS-exposed A/J mice (A/J mice exposed to LPS): have anti-inflammatory action; HDAC2 promoter activity and protein expression (reported) (HDAC2): restore HDAC2 promoter activity and protein expression; restoration of dexamethasone sensitivity (U937 cells [1]): None of ERY, CLR, or AZI restored dexamethasone sensitivity; inhibition of LPS-induced IL-8 release compared with Example 33 (IL-8; LPS 100 ng/ml 4 hrs): did not show any inhibition at any concentration tested; restoration of corticosteroid sensitivity (reported) (PBMCs from COPD patients): restore corticosteroid sensitivity; restoration of corticosteroid sensitivity (reported) (U937 cells [2]): restore corticosteroid sensitivity; inhibition of LPS-induced TNFα release compared with Example 33 (TNFα; LPS 100 ng/ml 4 hrs): did not show any inhibition at any concentration tested; reversal of HDAC mRNA expression reduction compared with Example 33 (HDAC2 mRNA): only at much higher doses than Example 33; MMP9 expression (reported) (MMP9 [3]): inhibited MMP9 expression; inhibition of Akt phosphorylation compared with Example 33 (Akt): at comparable concentrations"
CC[C@H]1OC(=O)[C@@](C)(F)C(=O)[C@H](C)[C@@H](O[C@@H]2O[C@H](C)[C@@H](OC(=O)Nc3ccccc3)[C@H](N(C)C)[C@H]2O)[C@@](C)(OC)C[C@@H](C)C(=O)[C@H](C)[C@H]2N(CCCCn3cc(-c4ccccn4)nn3)C(=O)O[C@]12C [Example 27],75%,> 64,1%,32,> 64,−43,8,> 64,34,−7,,,,,,,MIC S. pneumoniae 303 (ErmB) (S. pneumoniae 303 (ErmB)): > 64 µg/mL
CCC1OC(=O)C(C)C(OC2OCC(O)C(NC)C2O)C(C)C(OC2OC(C)CC(N(C)C)C2O)C(C)(O)CC(C)CN(C(C)=O)C(C)C2OC(=O)OC12C (mixture of isomers) [Example 32],79 (65) %,,40 (49) %,32,,55,,,73,11,>64,>64,32,32,>64,> 64,
CCC1OC(=O)C(C)C(OC2OCC(O)C(N(C)C)C2O)C(C)C(OC2OC(C)CC(N(C)C)C2O)C(C)(O)CC(C)CN(C(C)=O)C(C)C2OC(=O)OC12C (mixture of isomers) [Example 40],26%,> 64,60 (38) %,64,,93,,,68,26,>64,>64,32,16,>64,> 64,MIC S. pyogenes ATCC 19615 (S. pyogenes ATCC 19615): >64; MIC N. gonorrhoeae ATCC 49226 [9]: 8 and 16
CC[C@H]1OC(=O)[C@H](C)C(=O)[C@H](C)[C@@H](O[C@@H]2O[C@H](COC(=O)c3ccccc3)[C@@H](N)[C@@H]2O)[C@@](C)(OC)C[C@@H](C)C(=O)[C@H](C)[C@H]2N(CCCCn3cc(-c4ccccn4)nn3)C(=O)O[C@]12C [Example 26],92%,> 64,2%,32,> 64,−51,64,> 64,−25,−2,,,,,,,
